Reference: ChEMBL document CHEMBL1127728, “Docking analysis of a series of benzylamino acetylcholinesterase inhibitors with a phthalimide, benzoyl, or indanone moiety” (J Med Chem, 1994)

These compounds were tested against T1, Acetylcholinesterase (Rattus norvegicus, UniProt P37136) (assay: Inhibition concentration against rat acetylcholinesterase).
T1 sequence (P37136 whole entry): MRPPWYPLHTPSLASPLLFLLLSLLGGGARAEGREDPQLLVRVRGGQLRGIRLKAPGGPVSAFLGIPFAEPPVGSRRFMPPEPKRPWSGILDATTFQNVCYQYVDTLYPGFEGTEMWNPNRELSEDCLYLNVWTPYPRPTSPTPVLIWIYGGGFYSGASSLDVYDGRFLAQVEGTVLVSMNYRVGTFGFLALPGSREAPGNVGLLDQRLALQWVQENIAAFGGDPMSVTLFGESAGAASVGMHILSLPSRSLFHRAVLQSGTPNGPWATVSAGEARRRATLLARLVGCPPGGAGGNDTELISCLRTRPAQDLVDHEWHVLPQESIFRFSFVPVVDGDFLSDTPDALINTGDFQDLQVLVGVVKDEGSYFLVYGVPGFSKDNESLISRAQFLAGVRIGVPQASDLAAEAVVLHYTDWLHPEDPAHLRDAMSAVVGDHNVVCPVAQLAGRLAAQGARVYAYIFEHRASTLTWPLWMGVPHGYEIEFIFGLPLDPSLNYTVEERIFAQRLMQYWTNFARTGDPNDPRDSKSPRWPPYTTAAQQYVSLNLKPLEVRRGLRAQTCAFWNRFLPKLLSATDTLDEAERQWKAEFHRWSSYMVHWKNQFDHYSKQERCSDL

| Compound | IC50 [nM] |
| --- | --- |
| CCCN(CCCCCN1C(=O)c2ccc([N+](=O)[O-])cc2C1=O)Cc1ccccc1 | 2650 |
| CCN(CCCCCCCc1ccc(OC)c(OC)c1)Cc1ccccc1OC | 1070 |
| CCN(CCCCCN1C(=O)c2ccccc2C1=O)Cc1ccccc1 | 3370 |
| CCN(CCCCCN1C(=O)c2ccc([N+](=O)[O-])cc2C1=O)Cc1cccc(OC)c1OC | 274 |
| O=C1c2ccc([N+](=O)[O-])cc2C(=O)N1C1CCN(Cc2ccccc2)CC1 | 27000 |
| CCN(CCCCCN1C(=O)c2ccc([N+](=O)[O-])cc2C1=O)CC1CCCCC1 | 1090 |
| CN(CCCCCN1C(=O)c2ccc([N+](=O)[O-])cc2C1=O)Cc1ccccc1 | 1360 |
| CCN(CCCCCN1C(=O)c2ccc([N+](=O)[O-])cc2C1=O)Cc1cccc(OC(=O)NC)c1 | 0.38 |
| CCN(CCCCCN1C(=O)c2ccc([N+](=O)[O-])cc2C1=O)CCc1ccccc1 | 770 |
| CCN(CCCCCCC(=O)c1ccc(OC)c(OC)c1)Cc1ccccc1OC | 10 |
| CCN(CCCCCN(C(C)=O)C(=O)/C=C/c1ccccc1)Cc1ccccc1 | 2300 |
| CCN(CCCCCCN1C(=O)c2ccc([N+](=O)[O-])cc2C1=O)Cc1ccccc1 | 607 |
| COc1ccccc1CN1CCC(CCC(=O)c2ccc(N3CCCC3)cc2)CC1 | 1900 |
| CN(CCCCCCN1C(=O)c2ccc([N+](=O)[O-])cc2C1=O)Cc1ccccc1 | 474 |
| COc1ccc(C(=O)CCC2CCN(Cc3ccccc3)CC2)cc1OC | 52 |
| CCN(CCCCCN1C(=O)c2ccc([N+](=O)[O-])cc2C1=O)Cc1ccccc1OC | 24 |
| O=C1c2ccccc2C(=O)N1CCC1CCN(Cc2ccccc2)CC1 | 30 |
| CCN(CCCCCC(=O)c1ccc(OC)c(OC)c1)Cc1ccccc1OC | 24 |
| O=C1c2ccc([N+](=O)[O-])cc2C(=O)N1CCC1CCN(Cc2ccccc2)CC1 | 13 |
| CCN(CCCCCN(C(C)=O)C(=O)/C=C/c1ccc([N+](=O)[O-])cc1)Cc1ccccc1 | 539 |
| CCN(CCCCCN1C(=O)C2CCCCC2C1=O)Cc1ccccc1 (stereo unspecified) | 18500 |
| CCN(CCCCCCOc1ccc(OC)c(OC)c1)Cc1ccccc1OC | 920 |
| CCN(CCCCCC(=O)c1ccc(N2CCCC2)cc1)Cc1ccccc1 | 305 |
| CCN(CCCCCN1C(=O)c2ccc([N+](=O)[O-])cc2C1=O)CCCc1ccccc1 | 161 |
| O=C1c2ccc([N+](=O)[O-])cc2C(=O)N1CC1CCN(Cc2ccccc2)CC1 | 3000 |
| CCN(CCCCCNC(=O)/C=C/c1ccccc1)Cc1ccccc1 | 11800 |
